# Where two headings read alike, the source gives them in different places.
# How the values were obtained:
# [1] = system: patients with documented progression on erlotinib; set-up: method as in PMID 27613527; details: ruxolitinib in combination with erlotinib, cited from earlier work
# HCC4006 xenograft model = system: HCC4006 xenograft model; set-up: method as in PMID 25065853; details: ruxolitinib plus erlotinib; cited from earlier work
# [2] = system: colony formation in soft agar assays; set-up: method as in PMID 22319590; details: cited from earlier work
# HCC-827 xenograft models = system: HCC-827 xenograft models; set-up: method as in PMID 22319590; details: cited from earlier work
# [3] = system: patients who had progressed on at least 1 first-generation EGFR TKI; set-up: method as in PMID 31319994; details: ruxolitinib in combination with afatinib, cited from earlier work
# [4] = Pharmacokinetics of erlotinib during monotherapy and in combination with momelotinib (LC–MS/MS); type: in vivo, human; details: for Cmax: mean (%CV)
# Procedure: Prior to momelotinib dosing, blood samples were collected before a dose of erlotinib and at 0.5, 1, 2, 4, 6, 8, and 24 h after erlotinib dosing. On day 15 of cycle 1, blood samples were collected at the same time points after dosing with momelotinib and erlotinib (the 24-h time point was only applicable for momelotinib QD dosing). The concentrations of momelotinib and its major metabolite GS-644603 were evaluated using a liquid chromatography-tandem mass spectrometry (LC–MS/MS) assay with solid phase extraction validated over the range of 0.5–1000 ng/mL for each analyte. The concentration of erlotinib was determined using an LC–MS/MS assay with protein precipitation validated over the range of 5–5000 ng/mL. […] Pharmacokinetic (PK) parameters were estimated using standard noncompartmental methods with Phoenix WinNonlin® software (Certara, Princeton, NJ).
# (§1) Any patient who received ≥ 1 dose of study drug was included in the safety and efficacy analyses. Descriptive statistics were used to summarize study characteristics, DLTs, and AEs, including by dose level. ORR was summarized with corresponding two-sided 90% exact confidence intervals (CIs) using the binomial distribution. Both OS and PFS were summarized using Kaplan–Meier estimates and corresponding 90% CIs. Patient concentration data and PK parameters for erlotinib, momelotinib, and its major metabolite GS-644603 were summarized by dose level using descriptive statistics.
# [5] = system: patients with EGFR TKI-naive, EGFR-mutated NSCLC; assay: Safety in phase 1b dose-escalation study: DLTs and adverse events (CTCAE version 4.03)
# Source text: This was an open-label, dose-escalation phase 1b study, which comprised a dose-escalation phase, followed by a planned, randomized, expansion phase of the combination of erlotinib plus momelotinib vs. erlotinib alone (ClinicalTrials.gov Identifier: NCT02206763). An erlotinib lead-in was utilized during the dose-escalation phase since erlotinib’s toxicities of rash and diarrhea onset in the first 2–3 weeks of treatment allowing for (i) dose adjustment for erlotinib-related toxicities as per clinical standard of care prior to combination with momelotinib; (ii) examination of the impact of momelotinib on erlotinib steady-state pharmacokinetics; and (iii) accurate assessment of toxicity attribution during the combination treatment period.
# Patients were screened within 28 days of the start of study treatment and cycles were defined as 28 days. Erlotinib was self-administered orally once daily (QD) at least 1 h before or 2 h after a meal, with doses permitted at 50, 75, 100, or 150 mg. Dose reductions were permitted for management of erlotinib-related toxicity such as rash and diarrhea. Momelotinib was dose escalated following a standard 3 + 3 design starting at 100 mg QD (Table 1). Momelotinib was self-administered orally QD or twice daily (BID) (Table 1), with the latter planned dosing frequency differing from that used in myelofibrosis trials. Study treatment continued until disease progression, unacceptable toxicity, or consent withdrawal.
# The primary endpoint was the incidence of dose-limiting toxicities (DLTs). Physical exams and safety labs were performed on day 1 of cycle 1, day 15 of cycle 1, and on the first day of each cycle thereafter. Adverse events (AEs) were coded using the Medical Dictionary for Regulatory Activities (MedDRA), graded according to the Common Terminology Criteria for Adverse Events (CTCAE) version 4.03, and collected until 30 days after the last dose of the study treatment.
# DLTs were assessed during the first 28 days of combined erlotinib and momelotinib treatment and defined as clinically significant AEs related to study treatment. Prespecified hematologic DLTs only included grade 4 neutropenia (absolute neutrophil count [ANC] < 500/μL) and grade 4 thrombocytopenia (platelet count < 25,000/μL). Important exceptions for related grade 3 nonhematologic toxicities included grade 3 nausea or vomiting ≤ 48 h duration, diarrhea or rash that improved to grade 0 to 1 within 21 days of interruption of erlotinib, and alanine aminotransferase (ALT) or aspartate aminotransferase (AST) ≥ 5 times the upper limit of normal (ULN) that improved to ≤ 3 times the ULN within 21 days. Treatment delays of ≥ 28 days due to a treatment-emergent AEs (TEAEs) were also considered DLTs.
# as §1
# [6] = system: patients with EGFR-mutated NSCLC; details: erlotinib monotherapy, cited from earlier work
# [7] = system: STAT3 signaling in EGFR-mutant cell lines; set-up: method as in PMID 25065853, PMID 22712764; details: via autocrine- and paracrine-secreted factors such as IL-6; cited from earlier work
# aldehyde oxidase = system: aldehyde oxidase; set-up: method as in PMID 32393528; details: cited from earlier work
# PC-9 and HCC827 models = system: PC-9 and HCC827 models; set-up: method as in PMID 32297743, doi:10.1158/7445.AM2017-4046; details: AZD4205 with osimertinib, increased tumor regression, delayed regrowth, knockdown of pSTAT3; cited from earlier work
# [8] = erlotinib + momelotinib, all dose levels, n = 11
# [9] = randomized phase 3 study, ref 33
structure (smiles),measurement,setting,value
N#CC[C@H](C1CCCC1)n1cc(-c2ncnc3[nH]ccc23)cn1 [ruxolitinib],objective response,[1]; 1 of 22 patients,5%
same,median PFS,[1]; 95% CI 1.5–4.1,2.2 months
same,combination activity compared to EGFR inhibition alone,HCC4006 xenograft model,synergistic activity
same,colony formation,[2],decreased colony formation
same,tumor growth,HCC-827 xenograft models,slowed tumor growth
same,objective response,"[3]; patients with EGFR T790M, 5 of 20",25%
same,median PFS,"[3]; patients with EGFR T790M, 95% CI 2.5–7.3",4.9 months
same,objective response,"[3]; patients without EGFR T790M, 2 of 10",20%
same,median PFS,"[3]; patients without EGFR T790M, 95% CI 0.0–8.8",3.1 months
C#Cc1cccc(Nc2ncnc3cc(OCCOC)c(OCCOC)cc23)c1 [erlotinib],"erlotinib exposure (Cmax and AUCtau), monotherapy vs combination","[4]; day 1 of cycle 1 vs day 15 of cycle 1 with momelotinib, all momelotinib dose level groups",comparable
same,Cmax,"[4]; erlotinib monotherapy, Day 1, dose level 2A cohort, erlotinib 150 mg QD, n = 3",2040.0 (42.5) ng/mL
same,Cmax,"[4]; erlotinib with momelotinib 100 mg BID, Day 15, erlotinib 150 mg QD, n = 5",1782.0 (17.3) ng/mL
same,Cmax,"[4]; erlotinib with momelotinib 200 mg QD, Day 15, erlotinib 150 mg QD, n = 2",1740.0 (17.9) ng/mL
same,Cmax,"[4]; human, in vivo, oral, erlotinib monotherapy, Day 1, dose level 1 cohort, erlotinib 150 mg QD (1 patient 100 mg QD), n = 3, read-out: Cmax",1810 ng/mL
same,patients who discontinued erlotinib due to AEs,"[5]; 2 of 11 patients: grade 4 neutropenia, grade 1 hepatitis B",18.2%
same,patients with dose reductions of erlotinib (all for AEs),"[5]; across all dose levels, with momelotinib",4 patients
same,diarrhea considered related to erlotinib,[5]; [8],63.6%
same,dry skin considered related to erlotinib,[5]; [8],54.5%
same,paronychia considered related to erlotinib,[5]; [8],54.5%
same,neutropenia rate,"[6]; randomized phase 3 study, ref 2",0%
same,decreased neutrophils rate,[6]; [9],1.8%
same,neutropenia rate,[6]; [9],4.5%
same,neutropenia rate,"[6]; randomized phase 3 study, ref 34",6%
same,ANCs less than < 1000/mm^3 (grade 3 or greater),[6],rarely observed
same,"ORR, range over prior studies",[6],62.7 to 83%
same,"median PFS, range over prior studies",[6],9.7 to 11 months
same,effect on STAT3 signaling,[7],induce feedback activation of STAT3 signaling
same,inhibition of aldehyde oxidase,aldehyde oxidase,potent inhibitor
"COc1nn(C)cc1Nc1nccc(-c2c[nH]c3c(NC(=O)[C@@H](C)N4CCN(C)CC4)cccc23)n1 [AZD4205, (2R)-N-[3-[2-[(3-Methoxy-1-methyl-pyrazol-4-yl)amino]pyrimidin-4-yl]-1H-indol-7-yl]-2-(4-methylpiperazin-1-yl)propenamide]",combination activity compared to each agent alone,PC-9 and HCC827 models,synergistic activity

# Reference: PMC8739290, “A phase 1b study of erlotinib and momelotinib for the treatment of EGFR-mutated, tyrosine kinase inhibitor-naive metastatic non-small cell lung cancer” (Cancer Chemotherapy and Pharmacology, 2021)
